Values quoted from earlier work in publication PMC4136950 (Journal of peptide science : an official publication of the …, 2010).
pIC50: −log10 of the molar value.

Assays:
[1] = target: NR2A NMDA receptor subtype (co-expressed with NR1-2b) (Rattus norvegicus, UniProt P35439+Q00959); conditions: read-out: Approximate IC50, NR2A
[2] = target: NR2D NMDA receptor subtype (co-expressed with NR1-2b) (Rattus norvegicus, UniProt P35439+Q62645); conditions: read-out: Approximate IC50, NR2D
[3] = test system: NMDA receptor subtypes NR2(A-D)
[4] = target: NR2C NMDA receptor subtype (co-expressed with NR1-2b) (Rattus norvegicus, UniProt P35439+Q00961); conditions: read-out: Approximate IC50, NR2C
NR2C NMDA receptor subtype (co-expressed with NR1-2b), sequence (Q00961 20-1237, other chains not shown): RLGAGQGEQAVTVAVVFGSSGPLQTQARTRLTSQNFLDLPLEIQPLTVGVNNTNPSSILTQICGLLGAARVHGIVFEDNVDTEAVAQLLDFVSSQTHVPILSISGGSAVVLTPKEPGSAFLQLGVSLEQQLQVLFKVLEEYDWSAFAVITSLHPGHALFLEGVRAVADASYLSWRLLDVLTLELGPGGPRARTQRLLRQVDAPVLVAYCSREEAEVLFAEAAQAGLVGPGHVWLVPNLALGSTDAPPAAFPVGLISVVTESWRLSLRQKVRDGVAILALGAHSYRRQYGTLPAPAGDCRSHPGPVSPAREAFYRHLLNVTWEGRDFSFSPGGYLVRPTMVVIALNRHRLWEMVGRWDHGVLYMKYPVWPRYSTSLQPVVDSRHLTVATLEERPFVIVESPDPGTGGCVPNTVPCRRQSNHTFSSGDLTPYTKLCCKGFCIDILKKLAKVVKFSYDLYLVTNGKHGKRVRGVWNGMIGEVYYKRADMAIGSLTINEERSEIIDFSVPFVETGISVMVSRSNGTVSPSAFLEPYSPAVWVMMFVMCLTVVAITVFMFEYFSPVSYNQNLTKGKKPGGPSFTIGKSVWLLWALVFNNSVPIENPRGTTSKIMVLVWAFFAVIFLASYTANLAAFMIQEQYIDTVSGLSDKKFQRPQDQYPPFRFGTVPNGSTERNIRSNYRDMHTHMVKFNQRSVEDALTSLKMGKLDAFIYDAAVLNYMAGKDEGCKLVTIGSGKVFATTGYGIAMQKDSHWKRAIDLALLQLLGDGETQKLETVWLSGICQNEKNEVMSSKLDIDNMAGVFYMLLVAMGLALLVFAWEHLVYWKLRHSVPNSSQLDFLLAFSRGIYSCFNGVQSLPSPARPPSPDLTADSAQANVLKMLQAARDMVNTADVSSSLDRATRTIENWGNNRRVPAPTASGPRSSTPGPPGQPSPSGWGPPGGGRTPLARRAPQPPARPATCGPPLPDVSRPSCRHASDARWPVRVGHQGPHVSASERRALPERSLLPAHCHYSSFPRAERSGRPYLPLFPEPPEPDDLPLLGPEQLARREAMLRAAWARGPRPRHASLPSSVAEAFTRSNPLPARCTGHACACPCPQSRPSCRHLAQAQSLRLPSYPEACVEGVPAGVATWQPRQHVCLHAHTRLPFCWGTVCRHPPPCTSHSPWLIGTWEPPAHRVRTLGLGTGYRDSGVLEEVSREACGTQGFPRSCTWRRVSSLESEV

[5] = target: NR2B NMDA receptor subtype (co-expressed with NR1-2b) (Rattus norvegicus, UniProt P35439+Q00960); conditions: read-out: Approximate IC50, NR2B
NR2B NMDA receptor subtype (co-expressed with NR1-2b), sequence (Q00960 27-1482, other chains not shown): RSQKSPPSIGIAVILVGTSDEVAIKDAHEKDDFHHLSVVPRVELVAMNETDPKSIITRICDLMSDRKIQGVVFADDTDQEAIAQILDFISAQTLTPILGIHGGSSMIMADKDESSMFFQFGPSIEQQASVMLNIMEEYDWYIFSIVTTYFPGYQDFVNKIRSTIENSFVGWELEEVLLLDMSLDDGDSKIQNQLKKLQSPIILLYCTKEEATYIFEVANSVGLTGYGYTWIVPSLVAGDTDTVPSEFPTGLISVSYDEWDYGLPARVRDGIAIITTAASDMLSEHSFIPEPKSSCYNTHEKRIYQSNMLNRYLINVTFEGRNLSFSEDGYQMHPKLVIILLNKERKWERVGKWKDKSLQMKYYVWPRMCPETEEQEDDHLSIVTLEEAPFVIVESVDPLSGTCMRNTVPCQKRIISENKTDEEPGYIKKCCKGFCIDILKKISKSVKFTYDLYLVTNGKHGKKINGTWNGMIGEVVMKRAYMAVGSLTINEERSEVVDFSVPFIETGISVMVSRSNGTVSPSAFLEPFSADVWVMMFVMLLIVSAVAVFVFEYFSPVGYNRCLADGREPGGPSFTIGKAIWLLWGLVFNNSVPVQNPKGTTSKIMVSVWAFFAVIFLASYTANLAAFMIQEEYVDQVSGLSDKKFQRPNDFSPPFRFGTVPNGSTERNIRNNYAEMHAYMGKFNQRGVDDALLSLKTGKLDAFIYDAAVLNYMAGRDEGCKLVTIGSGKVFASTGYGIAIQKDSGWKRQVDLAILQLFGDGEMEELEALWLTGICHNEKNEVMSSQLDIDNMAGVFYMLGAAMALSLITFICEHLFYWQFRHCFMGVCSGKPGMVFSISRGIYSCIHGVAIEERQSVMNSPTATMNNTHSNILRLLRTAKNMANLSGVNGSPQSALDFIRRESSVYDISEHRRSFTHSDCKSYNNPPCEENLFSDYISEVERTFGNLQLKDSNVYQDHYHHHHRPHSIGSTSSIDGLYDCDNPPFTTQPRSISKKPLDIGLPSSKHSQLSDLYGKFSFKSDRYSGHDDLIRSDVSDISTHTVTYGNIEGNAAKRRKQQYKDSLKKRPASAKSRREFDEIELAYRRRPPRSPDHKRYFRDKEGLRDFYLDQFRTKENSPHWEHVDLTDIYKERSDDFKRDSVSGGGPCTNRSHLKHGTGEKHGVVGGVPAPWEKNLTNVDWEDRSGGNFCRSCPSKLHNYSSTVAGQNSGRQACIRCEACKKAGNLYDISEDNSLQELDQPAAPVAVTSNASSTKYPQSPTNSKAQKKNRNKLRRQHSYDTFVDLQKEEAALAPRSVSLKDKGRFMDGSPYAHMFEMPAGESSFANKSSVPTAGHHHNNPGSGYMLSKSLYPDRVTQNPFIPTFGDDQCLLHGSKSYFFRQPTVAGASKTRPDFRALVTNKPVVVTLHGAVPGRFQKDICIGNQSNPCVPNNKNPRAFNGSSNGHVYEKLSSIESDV

NR2D NMDA receptor subtype (co-expressed with NR1-2b), sequence (Q62645 28-1323, other chains not shown): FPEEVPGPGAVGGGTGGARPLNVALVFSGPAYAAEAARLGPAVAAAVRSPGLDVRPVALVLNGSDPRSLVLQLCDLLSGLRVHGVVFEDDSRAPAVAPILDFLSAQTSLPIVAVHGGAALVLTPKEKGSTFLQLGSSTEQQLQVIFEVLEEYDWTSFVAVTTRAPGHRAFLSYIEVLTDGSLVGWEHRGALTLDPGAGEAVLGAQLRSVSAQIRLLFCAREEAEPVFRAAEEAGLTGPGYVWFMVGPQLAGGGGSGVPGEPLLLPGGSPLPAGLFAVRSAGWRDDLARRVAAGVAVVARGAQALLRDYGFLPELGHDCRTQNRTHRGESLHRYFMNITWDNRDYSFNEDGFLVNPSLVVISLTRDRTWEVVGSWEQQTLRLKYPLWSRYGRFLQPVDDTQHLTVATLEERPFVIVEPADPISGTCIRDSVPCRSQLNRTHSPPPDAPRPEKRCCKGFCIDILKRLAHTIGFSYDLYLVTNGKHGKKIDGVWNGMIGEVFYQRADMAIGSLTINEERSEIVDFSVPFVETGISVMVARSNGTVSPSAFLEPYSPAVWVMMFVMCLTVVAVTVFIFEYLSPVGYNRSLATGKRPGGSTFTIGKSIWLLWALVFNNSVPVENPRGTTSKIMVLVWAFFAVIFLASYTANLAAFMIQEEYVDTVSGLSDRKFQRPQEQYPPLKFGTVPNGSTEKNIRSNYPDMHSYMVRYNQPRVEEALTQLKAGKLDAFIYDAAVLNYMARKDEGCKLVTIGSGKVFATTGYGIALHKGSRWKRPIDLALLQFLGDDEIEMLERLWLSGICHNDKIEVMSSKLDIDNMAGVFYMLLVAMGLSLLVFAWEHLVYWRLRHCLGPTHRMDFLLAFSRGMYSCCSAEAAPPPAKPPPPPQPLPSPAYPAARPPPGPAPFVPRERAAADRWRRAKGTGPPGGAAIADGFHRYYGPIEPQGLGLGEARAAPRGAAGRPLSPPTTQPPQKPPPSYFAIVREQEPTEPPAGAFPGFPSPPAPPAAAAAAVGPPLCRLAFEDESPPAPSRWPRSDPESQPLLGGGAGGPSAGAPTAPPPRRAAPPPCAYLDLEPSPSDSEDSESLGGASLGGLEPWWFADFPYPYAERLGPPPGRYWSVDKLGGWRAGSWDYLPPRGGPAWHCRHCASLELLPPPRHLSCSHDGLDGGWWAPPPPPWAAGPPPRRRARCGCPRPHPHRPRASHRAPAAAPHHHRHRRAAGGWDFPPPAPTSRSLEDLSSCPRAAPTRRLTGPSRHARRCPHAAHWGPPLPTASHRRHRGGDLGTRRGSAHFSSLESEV

Question: With GDγγ YSK FIγ RERγ AGR LDLSKFP^^ [ConBr] as the substance, how does the pIC50 [1] read?
Answer: 6.17

Question: What about the pIC50 [2] of the same substance?
Answer: 6.51

Question: And the “antagonism of NMDA receptor subtypes” value [3]?
Answer: known antagonist of the NR2B and NR2D NMDA receptor subtypes

Question: What about the pIC50 [4] of the same substance?
Answer: 5.31

Question: What about the pIC50 [5] of the same substance?
Answer: 6.85
